Assays:
Type in all cases: biochemical
PI3K (p110δ/p85α) = PI3K (p110δ/p85α) (Homo sapiens, UniProt O00329); experiment: PI3Kδ assay (ADP-Glo Kinase Assay); settings: recombinant enzyme; IC50 (nM) or max inhibition (%) at 0.5 μM
Procedure: Compounds disclosed herein were tested for inhibition of PI3Kδ kinase activity using commercial ADP-Glo™ Kinase Assay (Promega Corporation) and following the manufacture's instruction. Briefly, recombinant PI3K (p110δ/p85α) enzyme, lipid kinase substrate and a serial dilution of compounds disclosed herein were incubated for 0.5 hr at room temperature. ATP was added to initiate the kinase reaction. After incubation for 1 hr at room temperature, ADP-Glo™ reagent was added to terminate the kinase reaction and deplete the remaining ATP. After incubation for 1 hr at room temperature, kinase detection reagent was added to simultaneously convert ADP to ATP and allow the newly synthesized ATP to be measured using a luciferase/luciferin reaction. After incubation for 0.5 hr at room temperature, the luminescence generated was measured on a PHERAstar FS plate reader (BMG LABTECH). The residual enzyme activity in presence of increasing concentrations of compounds was calculated based on the luminescence. The IC50 for each compound was derived from fitting the data to the four-parameter logistic equation by Graphpad Prism software.

PI3K (p110α/p85α) = PI3K (p110α/p85α) (Homo sapiens, UniProt P42336); experiment: PI3Kα assay (ADP-Glo Kinase Assay); settings: recombinant enzyme; IC50 (nM) or max inhibition (%) at 0.5 μM
Chain of PI3K (p110α/p85α) (P42336 whole entry): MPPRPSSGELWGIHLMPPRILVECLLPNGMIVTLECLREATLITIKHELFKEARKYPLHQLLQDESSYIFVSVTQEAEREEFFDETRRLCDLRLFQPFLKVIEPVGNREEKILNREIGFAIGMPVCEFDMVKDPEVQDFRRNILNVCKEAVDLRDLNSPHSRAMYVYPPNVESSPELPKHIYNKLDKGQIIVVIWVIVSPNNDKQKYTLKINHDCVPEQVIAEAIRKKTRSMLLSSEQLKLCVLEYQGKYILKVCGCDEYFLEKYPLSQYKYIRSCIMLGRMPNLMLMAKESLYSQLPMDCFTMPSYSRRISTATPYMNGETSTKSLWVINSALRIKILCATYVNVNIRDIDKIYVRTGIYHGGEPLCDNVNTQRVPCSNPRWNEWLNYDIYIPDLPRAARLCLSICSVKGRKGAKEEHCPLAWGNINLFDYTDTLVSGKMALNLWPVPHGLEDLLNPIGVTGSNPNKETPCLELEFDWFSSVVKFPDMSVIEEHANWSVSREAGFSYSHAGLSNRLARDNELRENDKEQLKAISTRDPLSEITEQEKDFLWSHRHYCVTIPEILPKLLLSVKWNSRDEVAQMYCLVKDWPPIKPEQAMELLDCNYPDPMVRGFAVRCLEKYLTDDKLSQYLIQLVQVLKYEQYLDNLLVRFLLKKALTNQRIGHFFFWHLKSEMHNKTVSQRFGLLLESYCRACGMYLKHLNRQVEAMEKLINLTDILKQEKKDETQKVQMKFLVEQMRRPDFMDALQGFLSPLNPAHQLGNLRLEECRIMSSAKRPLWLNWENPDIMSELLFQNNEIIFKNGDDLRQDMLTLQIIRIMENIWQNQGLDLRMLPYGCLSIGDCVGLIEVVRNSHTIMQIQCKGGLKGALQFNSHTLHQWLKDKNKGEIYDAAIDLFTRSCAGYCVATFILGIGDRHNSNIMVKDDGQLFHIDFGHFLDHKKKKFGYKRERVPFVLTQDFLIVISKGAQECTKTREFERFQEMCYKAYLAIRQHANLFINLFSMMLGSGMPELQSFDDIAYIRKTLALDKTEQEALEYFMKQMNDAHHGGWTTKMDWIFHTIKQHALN
Chain of PI3K (p110α/p85α) (P27986 whole entry partner): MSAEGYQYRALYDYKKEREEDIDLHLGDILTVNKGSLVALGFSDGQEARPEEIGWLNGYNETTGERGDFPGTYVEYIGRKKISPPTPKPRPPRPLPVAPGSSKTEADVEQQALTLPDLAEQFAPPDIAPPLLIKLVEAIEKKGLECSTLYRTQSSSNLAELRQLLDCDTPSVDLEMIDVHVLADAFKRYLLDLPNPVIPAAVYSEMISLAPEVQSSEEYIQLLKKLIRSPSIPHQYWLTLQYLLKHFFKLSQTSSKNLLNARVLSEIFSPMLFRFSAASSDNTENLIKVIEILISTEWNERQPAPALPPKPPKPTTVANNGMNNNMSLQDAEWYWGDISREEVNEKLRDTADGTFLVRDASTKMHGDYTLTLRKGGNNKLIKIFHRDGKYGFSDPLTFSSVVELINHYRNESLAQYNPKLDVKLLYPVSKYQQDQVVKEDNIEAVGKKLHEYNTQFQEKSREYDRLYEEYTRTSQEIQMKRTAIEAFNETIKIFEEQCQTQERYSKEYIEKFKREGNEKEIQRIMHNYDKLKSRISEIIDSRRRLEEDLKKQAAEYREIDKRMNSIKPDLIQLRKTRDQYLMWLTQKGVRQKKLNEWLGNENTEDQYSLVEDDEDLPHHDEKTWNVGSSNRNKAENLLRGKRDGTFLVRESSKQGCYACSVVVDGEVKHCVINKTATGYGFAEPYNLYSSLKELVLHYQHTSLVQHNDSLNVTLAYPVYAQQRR

PI3K (p110β/p85α) = PI3K (p110β/p85α) (Homo sapiens, UniProt P42338); experiment: PI3Kβ assay (ADP-Glo Kinase Assay); settings: read-out: Enzyme activity IC50 PI3Kβ
Chain of PI3K (p110β/p85α) (P42338 whole entry): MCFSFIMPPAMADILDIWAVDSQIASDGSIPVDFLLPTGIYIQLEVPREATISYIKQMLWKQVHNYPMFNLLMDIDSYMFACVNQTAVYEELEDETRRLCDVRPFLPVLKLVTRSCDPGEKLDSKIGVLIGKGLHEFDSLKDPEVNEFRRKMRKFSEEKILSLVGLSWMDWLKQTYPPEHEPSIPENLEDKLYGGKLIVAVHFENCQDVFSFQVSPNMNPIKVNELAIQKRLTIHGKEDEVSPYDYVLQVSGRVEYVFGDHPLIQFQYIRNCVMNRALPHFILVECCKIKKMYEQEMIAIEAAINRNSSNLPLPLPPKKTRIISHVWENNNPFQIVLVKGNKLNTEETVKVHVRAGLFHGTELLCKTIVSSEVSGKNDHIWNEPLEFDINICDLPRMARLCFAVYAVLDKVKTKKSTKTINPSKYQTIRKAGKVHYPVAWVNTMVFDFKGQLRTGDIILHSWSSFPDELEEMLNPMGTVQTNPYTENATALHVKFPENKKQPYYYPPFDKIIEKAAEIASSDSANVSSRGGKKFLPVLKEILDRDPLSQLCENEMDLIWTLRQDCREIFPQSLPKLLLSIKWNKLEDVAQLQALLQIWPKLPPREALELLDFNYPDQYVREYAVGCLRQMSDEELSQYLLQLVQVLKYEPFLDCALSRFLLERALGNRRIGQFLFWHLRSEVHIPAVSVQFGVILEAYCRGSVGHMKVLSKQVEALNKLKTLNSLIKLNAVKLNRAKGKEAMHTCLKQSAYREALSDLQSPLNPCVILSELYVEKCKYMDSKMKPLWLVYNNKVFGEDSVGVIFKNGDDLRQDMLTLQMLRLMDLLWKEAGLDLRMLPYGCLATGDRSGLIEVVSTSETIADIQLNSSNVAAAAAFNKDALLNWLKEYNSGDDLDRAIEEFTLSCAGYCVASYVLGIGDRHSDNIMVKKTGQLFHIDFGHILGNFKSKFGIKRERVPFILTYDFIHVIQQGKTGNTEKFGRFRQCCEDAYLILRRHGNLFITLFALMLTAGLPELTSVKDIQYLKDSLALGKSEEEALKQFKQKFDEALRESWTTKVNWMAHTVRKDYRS
Chain of PI3K (p110β/p85α) (P27986 whole entry partner): as the sequence (P27986 whole entry partner) above

PI3K (p110γ) = PI3K (p110γ) (Homo sapiens, UniProt P48736); experiment: PI3Kγ assay (ADP-Glo Kinase Assay); settings: recombinant enzyme; IC50 (nM) or max inhibition (%) at 0.5 μM
Chain of PI3K (p110γ) (P48736 whole entry): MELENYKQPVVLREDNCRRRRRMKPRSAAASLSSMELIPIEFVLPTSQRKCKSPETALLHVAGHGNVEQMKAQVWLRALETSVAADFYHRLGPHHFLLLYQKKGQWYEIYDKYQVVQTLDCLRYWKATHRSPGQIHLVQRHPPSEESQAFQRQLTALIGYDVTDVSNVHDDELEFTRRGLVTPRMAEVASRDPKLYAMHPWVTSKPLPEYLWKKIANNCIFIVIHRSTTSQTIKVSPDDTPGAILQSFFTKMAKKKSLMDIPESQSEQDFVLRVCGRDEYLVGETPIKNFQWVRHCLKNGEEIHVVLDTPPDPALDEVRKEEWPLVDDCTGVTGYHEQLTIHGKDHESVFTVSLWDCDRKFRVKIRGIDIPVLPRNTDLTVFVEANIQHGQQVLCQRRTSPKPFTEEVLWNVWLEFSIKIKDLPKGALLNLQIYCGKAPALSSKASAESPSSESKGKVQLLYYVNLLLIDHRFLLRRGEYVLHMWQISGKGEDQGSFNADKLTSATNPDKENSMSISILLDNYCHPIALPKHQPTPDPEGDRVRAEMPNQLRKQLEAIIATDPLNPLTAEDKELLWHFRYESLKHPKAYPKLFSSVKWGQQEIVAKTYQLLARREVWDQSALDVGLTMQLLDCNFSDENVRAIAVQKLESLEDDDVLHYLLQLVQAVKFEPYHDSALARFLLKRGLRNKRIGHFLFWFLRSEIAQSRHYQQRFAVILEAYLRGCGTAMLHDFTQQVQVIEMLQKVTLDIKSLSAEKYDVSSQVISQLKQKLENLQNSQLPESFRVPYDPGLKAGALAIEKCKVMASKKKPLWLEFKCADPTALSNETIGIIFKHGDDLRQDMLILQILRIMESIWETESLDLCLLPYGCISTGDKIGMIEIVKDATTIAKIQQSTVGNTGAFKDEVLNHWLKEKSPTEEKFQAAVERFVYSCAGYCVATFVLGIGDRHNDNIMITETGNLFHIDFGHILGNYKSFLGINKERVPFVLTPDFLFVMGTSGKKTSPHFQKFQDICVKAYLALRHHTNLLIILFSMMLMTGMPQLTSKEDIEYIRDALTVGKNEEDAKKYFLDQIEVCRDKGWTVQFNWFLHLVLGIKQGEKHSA

Chain of PI3K (p110δ/p85α) (O00329 whole entry): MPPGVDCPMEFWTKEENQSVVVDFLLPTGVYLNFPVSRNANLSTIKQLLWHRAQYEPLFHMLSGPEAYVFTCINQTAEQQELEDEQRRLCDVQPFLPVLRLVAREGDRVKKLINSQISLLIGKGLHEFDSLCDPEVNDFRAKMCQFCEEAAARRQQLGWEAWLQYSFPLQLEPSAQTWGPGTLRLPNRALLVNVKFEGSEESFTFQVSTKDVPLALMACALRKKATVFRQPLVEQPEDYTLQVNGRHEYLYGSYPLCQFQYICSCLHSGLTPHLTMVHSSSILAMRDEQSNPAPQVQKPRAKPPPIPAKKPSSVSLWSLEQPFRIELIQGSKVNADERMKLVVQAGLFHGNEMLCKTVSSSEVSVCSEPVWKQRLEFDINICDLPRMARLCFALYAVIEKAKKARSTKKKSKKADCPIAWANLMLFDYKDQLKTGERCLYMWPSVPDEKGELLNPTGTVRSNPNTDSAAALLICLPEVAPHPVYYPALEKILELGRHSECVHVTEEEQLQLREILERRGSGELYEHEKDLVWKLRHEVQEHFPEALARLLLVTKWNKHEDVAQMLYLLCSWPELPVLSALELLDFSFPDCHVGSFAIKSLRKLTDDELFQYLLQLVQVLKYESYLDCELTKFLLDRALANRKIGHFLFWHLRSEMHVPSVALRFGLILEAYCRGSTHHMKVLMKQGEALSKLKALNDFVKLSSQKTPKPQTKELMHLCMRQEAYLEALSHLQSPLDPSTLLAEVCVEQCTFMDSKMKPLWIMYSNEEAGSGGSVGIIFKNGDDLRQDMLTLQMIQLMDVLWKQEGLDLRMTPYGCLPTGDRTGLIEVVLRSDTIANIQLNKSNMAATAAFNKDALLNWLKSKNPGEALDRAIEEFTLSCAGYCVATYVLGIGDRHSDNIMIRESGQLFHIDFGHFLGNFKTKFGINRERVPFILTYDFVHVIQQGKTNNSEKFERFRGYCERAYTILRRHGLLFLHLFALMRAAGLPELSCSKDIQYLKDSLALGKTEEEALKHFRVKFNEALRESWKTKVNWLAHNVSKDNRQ
Chain of PI3K (p110δ/p85α) (P27986 whole entry partner): as the sequence (P27986 whole entry partner) above

| IC50 (PI3K (p110δ/p85α)) | IC50 (PI3K (p110α/p85α)) | IC50 (PI3K (p110β/p85α)) | IC50 (PI3K (p110γ)) | Structure (SMILES) |
| --- | --- | --- | --- | --- |
| 2 nM | 9500 nM | 13 µM | 460 nM | COc1ccc([C@@H](C)NC(=O)c2c(F)c(Cl)cc([C@H](C)c3nc(C)c4c(N)nccn34)c2OC(C)C)cc1 [Compound 36, 3-((S)-1-(8-amino-1-methylimidazo[1,5-a]pyrazin-3-yl)ethyl)-5-chloro-6-fluoro-2-isopropoxy-N-((R)-1-(4-methoxyphenyl)ethyl)benzamide] |
| 1.4 nM | 36000 nM | 11 µM | 3200 nM | Cc1nc([C@@H](C)c2cc(Cl)c(F)c(C(=O)NC[C@H]3CCOC3)c2OC(C)C)n2ccnc(N)c12 [Compound 34, 3-((S)-1-(8-amino-1-methylimidazo[1,5-a]pyrazin-3-yl)ethyl)-5-chloro-6-fluoro-2-isopropoxy-N-(((R)-tetrahydrofuran-3-yl)methyl)benzamide] |
| 0.74 nM | 20000 nM | 30 µM | 5000 nM | Cc1nc([C@@H](C)c2cc(Cl)c(F)c(C(=O)N[C@@H]3CCCOC3)c2OC(C)C)n2ccnc(N)c12 [Compound 44, 3-((S)-1-(8-amino-1-methylimidazo[1,5-a]pyrazin-3-yl)ethyl)-5-chloro-6-fluoro-2-isopropoxy-N-((R)-tetrahydro-2H-pyran-3-yl)benzamide] |
| 0.86 nM | 24000 nM | 17 µM | 6500 nM | Cc1nc([C@@H](C)c2cc(Cl)c(F)c(C(=O)NCCC3CCOCC3)c2OC(C)C)n2ccnc(N)c12 [Compound 26, (S)-3-(1-(8-amino-1-methylimidazol[1,5-a]pyrazin-3-yl)ethyl)-5-chloro-6-fluoro-2-isopropoxy-N-(2-(tetrahydro-2H-pyran-4-yl)ethyl)benzamide] |
| 1 nM | 13000 nM | 11 µM | 2000 nM | Cc1nc(C(C)c2cc(Cl)c(F)c(C(=O)N3CCOCC3)c2OC(C)C)n2ccnc(N)c12 (single isomer, unassigned) [Compound 4A] |
| 6.3 nM | 49000 nM | 34 µM | 19000 nM | Cc1nc(C(C)c2cc(Cl)c(F)c(C(=O)N3CC(O)C3)c2OC(C)C)n2ccnc(N)c12 (stereo not shown) [Compound 3, (3-(1-(8-amino-1-methylimidazo[1,5-a]pyrazin-3-yl)ethyl)-5-chloro-6-fluoro-2-isopropoxyphenyl)(3-hydroxyazetidin-1-yl)methanone] |
| 2.2 nM | 14000 nM | 12 µM | 3400 nM | Cc1nc([C@@H](C)c2cc(Cl)c(F)c(C(=O)NCC3(O)CC3)c2OC(C)C)n2ccnc(N)c12 [Compound 66, (S)-3(1-(8-amino-1-methylimidazo[1,5-a]pyrazin-3-yl)ethyl)-5-chloro-6-fluoro-N-((1-hydroxycyclopropyl)methyl)-2-isopropoxybenzamide] |
| 2.2 nM | 14000 nM | 16 µM | 2800 nM | Cc1nc([C@@H](C)c2cc(Cl)c(F)c(C(=O)N[C@@H]3CCC[C@H]3O)c2OC(C)C)n2ccnc(N)c12 [Compound 58, 3-((S)-1-(8-amino-1-methylimidazo[1,5-a]pyrazin-3-yl)ethyl)-5-chloro-6-fluoro-N-((1R,2R)-2-hydroxycyclopentyl)-2-isopropoxybenzamide] |
| 1.4 nM | 14000 nM | 13 µM | 3400 nM | Cc1nc([C@@H](C)c2cc(Cl)c(F)c(C(=O)N[C@H]3CC[C@H](O)C3)c2OC(C)C)n2ccnc(N)c12 [Compound 71, 3-((S)-1-(8-amino-1-methylimidazo[1,5-a]pyrazin-3-yl)ethyl)-5-chloro-6-fluoro-N-((1S,3S)-3-hydroxycyclopentyl)-2-isopropoxybenzamide] |
| 2.5 nM | 27000 nM | 26 µM | 5800 nM | Cc1nc([C@@H](C)c2cc(Cl)c(F)c(C(=O)N[C@H]3CCCC[C@H]3O)c2OC(C)C)n2ccnc(N)c12 [Compound 47, 3-((S)-1-(8-amino-1-methylimidazo[1,5-a]pyrazin-3-yl)ethyl)-5-chloro-6-fluoro-N-((1S,2R)-2-hydroxycyclohexyl)-2-isopropoxybenzamide] |
| 2 nM | 33000 nM | 60 µM | 10000 nM | COC1CCN(C(=O)c2c(F)c(Cl)cc([C@H](C)c3nc(C)c4c(N)nccn34)c2OC(C)C)CC1 [Compound 19, (S)-(3-(1-(8-amino-1-methylimidazo[1,5-a]pyrazin-3-yl)ethyl)-5-chloro-6-fluoro-2-isopropoxyphenyl)(4-methoxypiperidin-1-yl)methanone] |
| 1.1 nM | 16000 nM | 32 µM | 2800 nM | Cc1nc([C@@H](C)c2cc(Cl)c(F)c(C(=O)N[C@H]3CCCOC3)c2OC(C)C)n2ccnc(N)c12 [Compound 45, 3-((S)-1-(8-amino-1-methylimidazol[1,5-a]pyrazin-3-yl)ethyl)-5-chloro-6-fluoro-2-isopropoxy-N-((S)-tetrahydro-2H-pyran-3-yl)benzamide] |
| 1.4 nM | 21000 nM | 12 µM | 4500 nM | Cc1nc([C@@H](C)c2cc(Cl)c(F)c(C(=O)N[C@H]3C[C@H](O)C3)c2OC(C)C)n2ccnc(N)c12 [Compound 61, 3-((S)-1-(8-amino-1-methylimidazo[1,5-a]pyrazin-3-yl)ethyl)-5-chloro-6-fluoro-N-((trans)-3-hydroxycyclobutyl)-2-isopropoxybenzamide] |
| 3 nM | 20000 nM | > 50 µM | 9300 nM | Cc1nc(C(C)c2cc(Cl)c(F)c(C(=O)N3CCC(F)(F)CC3)c2OC(C)C)n2ccnc(N)c12 (single isomer, unassigned) [Compound 13A] |
| 14 nM | > 50000 nM | > 50 µM | 5500 nM | Cc1nc(C(C)c2cc(Cl)c(F)c(C(=O)NC3(C(=O)O)CC3)c2OC(C)C)n2ccnc(N)c12 (stereo not shown) [Compound 2, 1-(3(1-(8-amino-1-methylimidazo[1,5-a]pyrazin-3-yl)ethyl)-5-chloro-6-fluoro-2-isopropoxybenzamido)cyclopropane-1-carboxylic acid] |
| 2.9 nM | > 50000 nM | > 50 µM | 17000 nM | Cc1nc(C(C)c2cc(Cl)c(F)c(C(=O)N3CC[C@H](O)C3)c2OC(C)C)n2ccnc(N)c12 (stereo partly drawn) [Compound 6, (3-(1-(8-amino-1-methylimidazo[1,5-a]pyrazin-3-yl)ethyl)-5-chloro-6-fluoro-2-isopropoxyphenyl)((S)-3-hydroxypyrrolidin-1-yl)methanone] |
| 1.4 nM | 17000 nM | 29 µM | 9000 nM | Cc1nc([C@@H](C)c2cc(Cl)c(F)c(C(=O)N[C@H]3CC[C@@H](O)CC3)c2OC(C)C)n2ccnc(N)c12 [Compound 62, 3((S)-1-(8-amino-1-methylimidazo[1,5-a]pyrazin-3-yl)ethyl)-5-chloro-6-fluoro-N-((cis)-4-hydroxycyclohexyl)-2-isopropoxybenzamide] |
| 1.4 nM | 18000 nM | 13 µM | 7900 nM | Cc1nc(C(C)c2cc(Cl)c(F)c(C(=O)N[C@H]3CC[C@@H](O)C3)c2OC(C)C)n2ccnc(N)c12 (single isomer, unassigned) [Compound 14A] |
| 1.6 nM | > 50000 nM | > 50 µM | 14000 nM | Cc1nc([C@@H](C)c2cc(Cl)c(F)c(C(=O)N3CCC4(CC3)COC4)c2OC(C)C)n2ccnc(N)c12 [Compound 64, (S)-(3-(1-(8-amino-1-methylimidazo[1,5-a]pyrazin-3-yl)ethyl)-5-chloro-6-fluoro-2-isopropoxyphenyl)(2-oxa-7-azaspiro[3.5]nonan-7-yl)methanone] |
| 1.4 nM | 10000 nM | 40 µM | 2500 nM | Cc1nc([C@@H](C)c2cc(Cl)c(F)c(C(=O)N3CC4CCC(C3)O4)c2OC(C)C)n2ccnc(N)c12 [Compound 52, (3-((S)-1-(8-amino-1-methylimidazo[1,5-a]pyrazin-3-yl)ethyl)-5-chloro-6-fluoro-2-isopropoxyphenyl)(8-oxa-3-azabicyclo[3.2.1]octan-3-yl)methanone] |
| 1.2 nM | 36000 nM | 21 µM | 4800 nM | Cc1nc([C@@H](C)c2cc(Cl)c(F)c(C(=O)NCC3CC3)c2OC(C)C)n2ccnc(N)c12 [Compound 42, (S)-3-(1-(8-amino-1-methylimidazo[1,5-a]pyrazin-3-yl)ethyl)-5-chloro-N-(cyclopropylmethyl)-6-fluoro-2-isopropoxybenzamide] |
| 0.97 nM | 17000 nM | 14 µM | 7700 nM | Cc1nc([C@@H](C)c2cc(Cl)c(F)c(C(=O)NCC3CCN(C)CC3)c2OC(C)C)n2ccnc(N)c12 [Compound 30, (S)-3-(1-(8-amino-1-methylimidazo[1,5-a]pyrazin-3-yl)ethyl)-5-chloro-6-fluoro-2-isopropoxy-N-((1-methylpiperidin-4-yl)methyl)benzamide] |

— patent US11905294B2, “Imidazo[1,5-a]pyrazine derivatives as PI3Kδ inhibitors” (BEIGENE, LTD., priority 2017, dated 2024)
